Test results: patent publication US11873291B2, “Quinoline cGAS antagonist compounds” (ImmuneSensor Therapeutics, Inc., priority 2020, dated 2024)
Where two headings read alike, the source gives them in different places.

Columns and labels:
[1] = test system: cGAS activity in Reporter THP1 cell line; experiment: Cellular assay to measure cGAS activity: ISRE-Gaussia luciferase reporter THP1 cells transfected with ISD; type: cell-based; details: Homo sapiens
Procedure: Cellular assay to measure cGAS activity: Reporter THP1 cell line harboring a gene encoding Gaussia Luciferase under the control of 5 tandem repeats of interferon-stimulated response elements (ISRE) fused to an ISG54 minimal promoter was used to test inhibition of cGAS activity by synthetic compounds in human cells. These cells were plated on 96-well plates at 0.3×10^6/well and incubated with serial dilutions of compounds or DMSO for 5 min, followed by transfection of 2 μg/mL of ISD (Interferon Stimulatory DNA, a 45 bp DNA oligo) or mock transfected using lipofectamine 2000 (Life Technology) method, according to manufacturer's instructions. 16 hours later, 15 μL of the media from each well was transferred to a new plate, 50 μL of solution containing 50 mM Hepes-NaOH, pH 6.5, 50 mM NaCl, 10 mM EDTA, 1 μM of coelenterazine was added to each well and luminescence was measured immediately. Fold increase in luminescence compared to mock transfection was plotted against concentrations of each compound, and IC50 is calculated using Graphpad. To evaluate the specificity of a compound, the same procedure was performed except that cells were transfected with 2 μg/mL poly(I:C) or infected with Sendai Virus (SeV) at 50 Unit/mL, which are known to activate the RIG-I-MAVS pathway. A specific inhibitory compound should inhibit interferon induction by DNA but have minimal effect on poly(I:C) or Sendai virus induced interferon reporter gene expression.
The letter codes for cGAS IC50 include: A (<2 μM); B (2-10 μM); C (>10 μM).

[2] = target: T1, recombinant human cGAS (aa147-522) (Homo sapiens, UniProt Q8N884); experiment: In vitro inhibition assay of cGAS activity (ATP consumption, KinaseGlo Max); type: biochemical
T1 construct: recombinant human cGAS (aa147-522); His6-SUMO (cleaved yes); made in house; host or cells: E. coli BL21/pLys
How it was run: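 De-tagged recombinant human cGAS (aa147-522, 1.5 μg/mL) was incubated 20 min at 37 °C with herring testis DNA, 6.6 μM ATP and 0.1 mM GTP in Tris pH 7.5/MgCl2 buffer plus serial compound dilutions. Remaining ATP was read by KinaseGlo Max luminescence, and IC50 was fitted from % ATP consumption versus log concentration.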

[3] = THP-1, Table 4, Gaussia luciferase
[4] = Table 3, read-out: cGAS Inhibition Results IC50
[5] = THP-1, untitled table after Table 4 (continuation)
[6] = Table 2, read-out: cGAS Inhibition Results IC50

T1 sequence (Q8N884 147-522): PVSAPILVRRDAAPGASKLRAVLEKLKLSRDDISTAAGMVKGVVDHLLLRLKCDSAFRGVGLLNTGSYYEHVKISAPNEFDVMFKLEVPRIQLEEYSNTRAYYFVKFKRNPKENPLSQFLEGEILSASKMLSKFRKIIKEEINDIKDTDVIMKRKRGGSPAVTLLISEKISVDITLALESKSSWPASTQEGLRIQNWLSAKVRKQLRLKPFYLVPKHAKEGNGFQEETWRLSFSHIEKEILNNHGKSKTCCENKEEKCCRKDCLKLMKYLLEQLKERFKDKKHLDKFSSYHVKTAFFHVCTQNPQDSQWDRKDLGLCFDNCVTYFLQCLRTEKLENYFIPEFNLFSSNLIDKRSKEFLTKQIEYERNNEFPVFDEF

| Structure (SMILES) | IC50 [1, 3] | IC50 [2, 4] | IC50 [1, 5] | IC50 [2, 6] |
| --- | --- | --- | --- | --- |
| COC(=O)CC[C@@H]1CCCN1c1cc(-n2ccnc2)c2ccc(Cl)c(Cl)c2n1 [I-680] | 2000 to 10000 nM | 2000 to 30000 nM |  |  |
| O=C(O)CCOC[C@@H]1C[C@@H]2C[C@@H]2N1c1cc(-n2ccnc2)c2ccc(Cl)c(Cl)c2n1 [I-707] | < 2000 nM | < 2000 nM |  |  |
| O=C(O)CC[C@@H]1CCCN1c1cc(-n2ccnc2)c2ccc(Cl)c(Cl)c2n1 [I-679] | 2000 to 10000 nM | < 2000 nM |  |  |
| COC(=O)Cc1cc(F)cc(CNc2cc(-n3ccnc3)c3ccc(Cl)c(Cl)c3n2)c1 [I-890, methyl 2-(3-(((7,8-dichloro-4-(1H-imidazol-1-yl)quinolin-2-yl)amino)methyl)-5-fluorophenyl)acetate] |  | 2000 to 30000 nM | < 2000 nM |  |
| O=C(O)CCOC[C@@H]1CCCCN1c1cc(-n2ccnc2)c2ccc(Cl)c(Cl)c2n1 [I-789] |  | < 2000 nM | < 2000 nM |  |
| O=C(O)Cc1ccccc1OC[C@@H]1CCCN1c1cc(-n2ccnc2)c2ccc(Cl)c(Cl)c2n1 [I-734] | < 2000 nM | < 2000 nM |  |  |
| O=C(O)CCOCCN(CCOCCC(=O)O)c1cc(-n2ccnc2)c2ccc(Cl)c(Cl)c2n1 [I-839] |  | < 2000 nM | > 10000 nM |  |
| O=C(O)CCOCc1ccc(Cl)c(-c2cc(-n3ccnc3)c3ccc(Cl)c(Cl)c3n2)c1 [I-878] |  | < 2000 nM | < 2000 nM |  |
| O=C(O)CCOC[C@@H]1C[C@@H](N2CCOCC2)CN1c1cc(-n2ccnc2)c2ccc(Cl)c(Cl)c2n1 [I-799] |  | < 2000 nM | > 10000 nM |  |
| NC(=O)[C@@H]1CCCN1c1cc(-n2ccnc2)c2ccc(Cl)c(Cl)c2n1 [I-448] | > 10000 nM |  |  | < 2000 nM |
| COc1cc(C(=O)O)cc(-c2cc(-n3ccnc3)c3ccc(Cl)cc3n2)c1 [I-24, 3-(7-chloro-4-(1H-imidazol-1-yl)quinolin-2-yl)-5-methoxybenzoic acid] | 2000 to 10000 nM |  |  | < 2000 nM |
| O=C(O)[C@@H]1[C@H](O)CCN1c1cc(-n2ccnc2)c2ccc(Cl)c(Cl)c2n1 [I-429] | > 10000 nM |  |  | < 2000 nM |
| COc1ccc(-c2cc(-n3ccnc3)c3ccc(Cl)cc3n2)cc1C(=O)O [I-15] | > 10000 nM |  |  | < 2000 nM |
| O=C(O)CCOCCC[C@@H]1CCCN1c1cc(-n2ccnc2)c2ccc(Cl)c(Cl)c2n1 [I-677] | < 2000 nM | < 2000 nM |  |  |
| O=C(O)CCOC[C@@H]1CCN(c2cc(-n3ccnc3)c3ccc(Cl)c(Cl)c3n2)C1 [I-773] |  | < 2000 nM | < 2000 nM |  |
| NS(=O)(=O)C1CCCN(c2cc(-n3ccnc3)c3ccc(Cl)c(Cl)c3n2)C1 (stereo not drawn) [I-116] | 2000 to 10000 nM |  |  | < 2000 nM |
| O=C1OCC2CCN(c3cc(-n4ccnc4)c4ccc(Cl)c(Cl)c4n3)C12 (stereo not drawn) [I-775, 1-(7,8-dichloro-4-(1H-imidazol-1-yl)quinolin-2-yl)hexahydro-6H-furo[3,4-b]pyrrol-6-one] |  | < 2000 nM | 2000 to 10000 nM |  |
| CC(=O)N[C@H]1CCN(c2cc(-n3ccnc3)c3ccc(Cl)c(Cl)c3n2)C1 [I-764, (S)—N-(1-(7,8-dichloro-4-(1H-imidazol-1-yl)quinolin-2-yl)pyrrolidin-3-yl)acetamide] |  | < 2000 nM | > 10000 nM |  |
| CC(C)(C)O[C@@H]1C[C@@H](COCCC(=O)O)N(c2cc(-n3ccnc3)c3ccc(Cl)c(Cl)c3n2)C1 [I-796] |  | < 2000 nM | < 2000 nM |  |
| CN(CCCOCCC(=O)O)c1cc(-n2ccnc2)c2ccc(Cl)c(Cl)c2n1 [I-692] | < 2000 nM | < 2000 nM |  |  |
| COC(=O)CCC(=O)NNc1cc(-n2ccnc2)c2ccc(Cl)c(Cl)c2n1 [I-758] |  | 2000 to 30000 nM | > 10000 nM |  |
| O=C(O)CCOCCN(CCO)c1cc(-n2ccnc2)c2ccc(Cl)c(Cl)c2n1 [I-838] |  | < 2000 nM | > 10000 nM |  |
| COC(=O)[C@@H]1[C@H](O)CCN1c1cc(-n2ccnc2)c2ccc(Cl)c(Cl)c2n1 [I-597] | > 10000 nM | 2000 to 30000 nM |  |  |

| Structure (SMILES) | IC50 [1, 3] | IC50 [2, 4] | IC50 [1, 5] | IC50 [2, 6] |
| --- | --- | --- | --- | --- |
| O=C(O)CCOC[C@@H]1C[C@H](O)CN1c1cc(-n2ccnc2)c2ccc(Cl)c(Cl)c2n1 [I-702] | 2000 to 10000 nM | < 2000 nM |  |  |
| O=C(OC(C(F)(F)F)C(F)(F)F)[C@@H]1[C@@H](O)CCN1c1cc(-n2ccnc2)c2ccc(Cl)c(Cl)c2n1 [I-663] | < 2000 nM | < 2000 nM |  |  |
| O=C(O)Cc1cccc(CNc2cc(-n3ccnc3)c3ccc(Cl)c(Cl)c3n2)c1 [I-844] |  | < 2000 nM | < 2000 nM |  |
| COC(=O)/C=C/[C@@H]1CCCN1c1cc(-n2ccnc2)c2ccc(Cl)c(Cl)c2n1 [I-687] | > 10000 nM | 2000 to 30000 nM |  |  |
| O=C(O)CCOC[C@H]1CC2CCC1N2c1cc(-n2ccnc2)c2ccc(Cl)c(Cl)c2n1 (stereo partly drawn) [I-811] |  | < 2000 nM | < 2000 nM |  |
| O=C(O)CCOC[C@H]1CCCN1c1cc(-n2ccnc2)c2ccc(Cl)c(Cl)c2n1 [I-674] | 2000 to 10000 nM | < 2000 nM |  |  |
| COC(=O)[C@@H]1[C@@H]2[C@H](CN1c1cc(-n3ccnc3)c3ccc(Cl)c(Cl)c3n1)C2(C)C [I-471] | 2000 to 10000 nM | 2000 to 30000 nM |  |  |
| COC(=O)[C@@H]1C[C@H](C)CN1c1cc(-n2ccnc2)c2ccc(Cl)c(Cl)c2n1 [I-586] | < 2000 nM | 2000 to 30000 nM |  |  |
| CN(Cc1cccc(CC(=O)O)c1)c1cc(-n2ccnc2)c2ccc(Cl)c(Cl)c2n1 [I-845] |  | < 2000 nM | < 2000 nM |  |
| O=C(O)Cc1cc(F)cc(CNc2cc(-n3ccnc3)c3ccc(Cl)c(Cl)c3n2)c1 [I-891, 2-(3-(((7,8-dichloro-4-(1H-imidazol-1-yl)quinolin-2-yl)amino)methyl)-5-fluorophenyl)acetic acid] |  | < 2000 nM | < 2000 nM |  |
| COC(=O)[C@@H]1[C@@H]2C[C@@H]2CN1c1cc(-n2ccnc2)c2ccc(Cl)c(Cl)c2n1 [I-577] | 2000 to 10000 nM | 2000 to 30000 nM |  |  |
| COC(=O)CCC[C@@H]1CCCN1c1cc(-n2ccnc2)c2ccc(Cl)c(Cl)c2n1 [I-681] | < 2000 nM | 2000 to 30000 nM |  |  |
| COC(=O)[C@@H]1[C@@H](F)CCN1c1cc(-n2ccnc2)c2ccc(Cl)c(Cl)c2n1 [I-649, methyl (2R,3S)-1-(7,8-dichloro-4-(1H-imidazol-1-yl)quinolin-2-yl)-3-fluoropyrrolidine-2-carboxylate] | 2000 to 10000 nM | 2000 to 30000 nM |  |  |
| CC(COC[C@@H]1CCCN1c1cc(-n2ccnc2)c2ccc(Cl)c(Cl)c2n1)C(=O)O (stereo partly drawn) [I-719] | < 2000 nM | < 2000 nM |  |  |
| OCCCOCC[C@@H]1CCCN1c1cc(-n2ccnc2)c2ccc(Cl)c(Cl)c2n1 [I-678] | 2000 to 10000 nM | < 2000 nM |  |  |
| O=C(O)CCOCc1ccccc1-c1cc(-n2ccnc2)c2ccc(Cl)c(Cl)c2n1 [I-841] |  | < 2000 nM | > 10000 nM |  |
| O=C(O)COC[C@@H]1CN(c2cc(-c3cn[nH]c3)c3ccc(Cl)c(Cl)c3n2)CCO1 [I-740] | > 10000 nM | < 2000 nM |  |  |
| O=C(O)CCOC[C@@H]1C[C@@H]2CCCC[C@@H]2N1c1cc(-n2ccnc2)c2ccc(Cl)c(Cl)c2n1 [I-808] |  | < 2000 nM | < 2000 nM |  |
| COC(=O)[C@@H]1C[C@H]2C[C@H]2N1c1cc(-n2ccnc2)c2ccc(Cl)c(Cl)c2n1 [I-591] | 2000 to 10000 nM | 2000 to 30000 nM |  |  |
| O=C(O)CCOC[C@H]1CCCN(c2cc(-n3ccnc3)c3ccc(Cl)c(Cl)c3n2)C1 [I-745] | < 2000 nM | < 2000 nM |  |  |
| O=C(O)CCCCCNc1cc(-n2ccnc2)c2ccc(Cl)c(Cl)c2n1 [I-690] | < 2000 nM | < 2000 nM |  |  |
| COC(=O)/C=C/C[C@@H]1CCCN1c1cc(-n2ccnc2)c2ccc(Cl)c(Cl)c2n1 [I-686] | < 2000 nM | 2000 to 30000 nM |  |  |
